IC50 data for 21 molecules are collected here from US11242334B2, “Heterocyclic compounds as kinase inhibitors, compositions comprising the heterocyclic compound, and methods of use thereof” (JS INNOPHARM (SHANGHAI) LTD, priority 2017, dated 2022).

The experiment has as its system Colo205 cell line. In words: Colo205 cell proliferation assay (MTT assay, WST-8 readout). It counts as cell-based. Conditions: IC50 values of growth inhibition in Colo 205 cells, 72 hours. How it is done: Compounds disclosed herein were tested for the inhibition of ERK2 by a Colo205 cell proliferation assay commonly known as MTT assay. In this assay, a complete media was prepared by adding 10% fetal bovine serum to RPMI-1640 medium (Life technology). Colon cancer cells (Colo205 cell line) were added to each of 88 wells of a 96 well plate at a seeding density of 5,000 cells/well/90 μL. The cells were allowed to attach to the plate by incubating at 37° C. for 24 hours. The compound was dissolved in DMSO (SIGMA). A solution of test compound was prepared in complete media by serial dilution to obtain the following concentrations: 500 μM, 150 μM, 50 μM, 15 μM, 5 μM, 1.5 μM, 0.5 μM, 0.15 μM and 0.05 μM. The test compound solution (10 μL) was added to each of 80 cell-containing wells. The final concentrations of the compound were following: 50 μM, 15 μM, 5 μM, 1.5 μM, 0.5 μM, 0.15 μM, 0.05 μM, 0.015 μM and 0.005 μM. The final concentration of DMSO is 0.5%. To the 8 remaining cell-containing wells, only complete media (containing 0.5% DMSO) was added to form a control group in order to measure maximal proliferation. To the remaining 8 empty wells, complete media was added to for a vehicle control group in order to measure background. The plates were incubated at 37° C. for 72 hours. 10 μL WST-8 solution (DOJINDO, Cell Counting KIT-8) was added to each well. The plates were further incubated at 37° C. for 2 hours, and then read for the absorbance using a microplate reader at 450 nm.
The IC50 values of growth inhibition in Colo 205 cells for Compounds disclosed are listed in Table 3, A′: ≤0.5 μM; B′: >0.5 μM and ≤1 μM; C′: >1.0 μM and ≤5 uM; D′: >5 μM.
For orientation: Tetrazolium assays rely on reduction of a dye to a coloured formazan, in cell work by metabolically active cells.

In general, IC50 refers to the concentration at which inhibition is half-maximal. Low values mean inhibition by little substance, high ones a need for much substance. Consider `Cc1cc(-c2n[nH]c3ccc(-c4ccn([C@H](C)c5ccnc(C(F)(F)F)c5)c(=O)c4)cc23)ccn1` (single isomer, unassigned) [Example 142B], for which the IC50 (Homo sapiens) was not above 500 nM.

Turning to `Cc1cc(-c2n[nH]c3ccc(-c4ccn(CCN5CCOCC5)c(=O)c4)cc23)ccn1` [Example 54, 4-(3-(2-methylpyridin-4-yl)-1H-indazol-5-yl)-1-(2-morpholinoethyl)pyridin-2(1H)-one], the IC50 (Homo sapiens) is more than 5000 nM.

Consider `O=c1cc(-c2ccc3[nH]nc(-c4ccc(F)cn4)c3c2)ccn1[C@H](CO)c1cc(F)cc(Br)c1` [Example 125, (S)-1-(1-(3-bromo-5-fluorophenyl)-2-hydroxyethyl)-4-(3-(5-fluoropyridin-2-yl)-1H-indazol-5-yl)pyridin-2(1H)-one], for which the IC50 (Homo sapiens) fell in the range of 500 to 1000 nM.

Consider `O=c1cc(-c2ccc3[nH]nc(-c4ccnc(C(F)(F)F)c4)c3c2)ccn1Cc1ccnc(C(F)(F)F)c1` [Example 126, 4-(3-(2-(trifluoromethyl)pyridin-4-yl)-1H-indazol-5-yl)-1-((2-(trifluoromethyl)pyridin-4-yl)methyl)pyridin-2(1H)-one], for which, for the setting “Homo sapiens”, the IC50 is more than 5000 nM.

`Cc1cc(Cn2ccc(-c3ccc4[nH]nc(-c5ccnc(C)c5)c4c3)cc2=O)ccn1` [Example 127, 4-(3-(2-methylpyridin-4-yl)-1H-indazol-5-yl)-1-((2-methylpyridin-4-yl)methyl)pyridin-2(1H)-one] registered an IC50 (Homo sapiens) of 1000 to 5000 nM.

For the setting “Homo sapiens”, `O=c1cc(-c2ccc3[nH]nc(-c4ccc5ncnn5c4)c3c2)ccn1[C@H](CO)c1cc(F)cc(Br)c1` [Example 128, (S)-4-(3-([1,2,4]triazolo[1,5-a]pyridin-6-yl)-1H-indazol-5-yl)-1-(1-(3-bromo-5-fluorophenyl)-2-hydroxyethyl)pyridin-2(1H)-one] had an IC50 not above 500 nM.

`O=c1cc(-c2ccc3[nH]nc(-c4ccc5nccn5c4)c3c2)ccn1[C@H](CO)c1cc(F)cc(Br)c1` [Example 129, (S)-1-(1-(3-bromo-5-fluorophenyl)-2-hydroxyethyl)-4-(3-(imidazo[1,2-a]pyridin-6-yl)-1H-indazol-5-yl)pyridin-2(1H)-one] had an IC50 (Homo sapiens) not above 500 nM.

Turning to `Cc1nc2ccc(-c3n[nH]c4ccc(-c5ccn([C@H](CO)c6cc(F)cc(Br)c6)c(=O)c5)cc34)cn2n1` [Example 130, (S)-1-(1-(3-bromo-5-fluorophenyl)-2-hydroxyethyl)-4-(3-(2-methyl-[1,2,4]triazolo[1,5-a]pyridin-6-yl)-1H-indazol-5-yl)pyridin-2(1H)-one], where the note is “Homo sapiens”, the IC50 is not above 500 nM.

For `Cc1cc(-c2n[nH]c3ccc(-c4ccn(Cc5ccc(C(F)(F)F)nc5)c(=O)c4)cc23)ccn1` [Example 131, 4-(3-(2-methylpyridin-4-yl)-1H-indazol-5-yl)-1-((6-(trifluoromethyl)pyridin-3-yl)methyl)pyridin-2(1H)-one], the IC50 (Homo sapiens) lay within 1000 to 5000 nM.

In the case of `CCc1cc(-c2n[nH]c3ccc(-c4ccn(Cc5ccnc(C(F)(F)F)c5)c(=O)c4)cc23)ccn1` [Example 132, 4-(3-(2-ethylpyridin-4-yl)-1H-indazol-5-yl)-1-((2-(trifluoromethyl)pyridin-4-yl)methyl)pyridin-2(1H)-one], where the note is “Homo sapiens”, the IC50 lay within 1000 to 5000 nM.

Regarding `O=c1cc(-c2ccc3[nH]nc(-c4ccnc(C5CC5)c4)c3c2)ccn1Cc1ccnc(C(F)(F)F)c1` [Example 133, 4-(3-(2-cyclopropylpyridin-4-yl)-1H-indazol-5-yl)-1-((2-(trifluoromethyl)pyridin-4-yl)methyl)pyridin-2(1H)-one], the IC50 (Homo sapiens) is 1000 to 5000 nM.

The molecule `Cc1cc(-c2n[nH]c3ccc(-c4ccn([C@H](CO)c5ccnc(C(F)(F)F)c5)c(=O)c4)cc23)ccn1` [Example 134, (S)-1-(2-hydroxy-1-(2-(trifluoromethyl)pyridin-4-yl)ethyl)-4-(3-(2-methylpyridin-4-yl)-1H-indazol-5-yl)pyridin-2(1H)-one] registered an IC50 (Homo sapiens) of 1000 to 5000 nM.

As for `Cc1cc(-c2n[nH]c3ccc(-c4ccn(Cc5nc(C(F)(F)F)cs5)c(=O)c4)cc23)ccn1` [Example 135], the IC50 (Homo sapiens) was in the range of 1000 to 5000 nM.

Regarding `Cc1cc(-c2n[nH]c3ccc(-c4ccn(Cc5cccnc5C(F)(F)F)c(=O)c4)cc23)ccn1` [Example 136, 4-(3-(2-methylpyridin-4-yl)-1H-indazol-5-yl)-1-((2-(trifluoromethyl)pyridin-3-yl)methyl)pyridin-2(1H)-one], the IC50 (Homo sapiens) is 1000 to 5000 nM.

The molecule `Cc1cc(-c2n[nH]c3ccc(-c4ccn(Cc5cccc(C(F)(F)F)n5)c(=O)c4)cc23)ccn1` [Example 137, 4-(3-(2-methylpyridin-4-yl)-1H-indazol-5-yl)-1-((6-(trifluoromethyl)pyridin-2-yl)methyl)pyridin-2(1H)-one] displayed an IC50 (Homo sapiens) of 500 to 1000 nM.

With `Cc1nn(C)cc1-c1n[nH]c2ccc(-c3ccn([C@H](CO)c4cc(F)cc(Br)c4)c(=O)c3)cc12` [Example 138, (S)-1-(1-(3-bromo-5-fluorophenyl)-2-hydroxyethyl)-4-(3-(1,3-dimethyl-1H-pyrazol-4-yl)-1H-indazol-5-yl)pyridin-2(1H)-one], the IC50 (Homo sapiens) is 500 to 1000 nM.

Molecule `Cc1cc(-c2n[nH]c3ccc(-c4ccn(Cc5cc(C(F)(F)F)no5)c(=O)c4)cc23)ccn1` [Example 139, 4-(3-(2-methylpyridin-4-yl)-1H-indazol-5-yl)-1-((3-(trifluoromethyl)isoxazol-5-yl)methyl)pyridin-2(1H)-one] gave an IC50 (Homo sapiens) of 1000 to 5000 nM.

As to `CNc1n[nH]c2ccc(-c3ccn([C@H](CO)c4cc(F)cc(Br)c4)c(=O)c3)cc12` [Example 141, (S)-1-(1-(3-bromo-5-fluorophenyl)-2-hydroxyethyl)-4-(3-(methylamino)-1H-indazol-5-yl)pyridin-2(1H)-one], under “Homo sapiens”, the IC50 is 1000 to 5000 nM.

In turn, `Cc1cc(-c2n[nH]c3ccc(-c4ccn([C@@H](C)c5ccnc(C(F)(F)F)c5)c(=O)c4)cc23)ccn1` [Example 142A, (S)-4-(3-(2-methylpyridin-4-yl)-1H-indazol-5-yl)-1-(1-(2-(trifluoromethyl)pyridin-4-v1)ethyl)pyridin-2(1H)-one] displayed a half-inhibitory concentration (IC50) of 1000 to 5000 nM.

`O=c1cc(-c2ccc3[nH]nc(C4CCOC4)c3c2)ccn1[C@H](CO)c1cc(F)cc(Br)c1` (stereo partly drawn) [Example 150, 1-((S)-1-(3-bromo-5-fluorophenyl)-2-hydroxyethyl)-4-(3-(tetrahydrofuran-3-yl)-1H-indazol-5-yl)pyridin-2(1H)-one] had an IC50 (Homo sapiens) of 1000 to 5000 nM.

Where the note is “Homo sapiens”, `O=c1cc(-c2ccc3[nH]nc(N4CCC(O)C4)c3c2)ccn1[C@H](CO)c1cc(F)cc(Br)c1` (stereo partly drawn) [Example 151, 1-((S)-1-(3-bromo-5-fluorophenyl)-2-hydroxyethyl)-4-(3-(3-hydroxypyrrolidin-1-yl)-1H-indazol-5-yl)pyridin-2(1H)-one] had an IC50 of 1000 to 5000 nM.
